Test results taken from patent US6565895B2, “Bismuth compounds for the treatment and prevention of mucositis” (GelTex Pharmaceuticals, Inc., priority 2000, dated 2003).

Tested on: oral mucositis in a hamster model following irradiation
Assay: Hamster model of radiation-induced oral mucositis (mucositis score)
Assay type: in vivo, Golden Syrian hamsters
[1] = solution containing 17.5 mg/ml, 0.5 ml into left cheek pouch three times per day, Day 0 to Day 19, single radiation dose 35-38 Gy
[2] = solution containing 3.5 mg/ml, 0.5 ml into left cheek pouch three times per day, Day 0 to Day 19, single radiation dose 35-38 Gy

Excerpt: Briefly, male Golden Syrian hamsters (Charles River Laboratories), aged 5 to 6 weeks, with body weights of approximately 90 g at project commencement, were used. Animals were individually numbered using an ear punch and housed in small groups of approximately 6 animals per cage. Animals were acclimatized for at least one week prior to project commencement. During this period, the animals were observed daily in order to reject animals that presented in poor condition. Animals were fed with a standard hamster chow and water ad libitum.
Mucositis was induced using an acute radiation protocol. A single dose of radiation (35-38 Gy/dose) was administered to all animals on Day 0. Radiation was generated with a 250 kilovolt potential (15 mA) source at a focal distance of 50 cm, hardened with a 0.35 mm Cu filtration system. […] Prior to irradiation, animals were anesthetized with an intraperitoneal injection of sodium pentobarbital (80 mg/kg). The left buccal pouch was everted, fixed and isolated using a lead shield.
All animals were dosed with test material three times per day. A needleless tuberculin syringe containing 0.5 ml of the test compound was inserted into the left cheek pouch and the drug deposited into the pouch. Dosing began on Day 0 and continued until Day 19.
The mucositis score, weight change and survival were measured as outcomes in this study. For the evaluation of mucositis, the animals were anesthetized with inhalation anesthetics, and the left pouch everted. Mucositis was scored visually by comparison to a validated photographic scale, ranging from 0 for normal to 5 for severe ulceration (clinical scoring). In descriptive terms, this scale is defined as follows:
A score of 1-2 is considered to represent a mild stage of the disease, whereas a score of 3-5 is considered to indicate moderate to severe mucositis. Following visual scoring, a photograph was taken of each animal's mucosa using a standardized technique. At the conclusion of the experiment, all films were developed and the photographs randomly numbered. At least two independent trained observers graded the photographs in blinded fashion using the above-described scale (blinded scoring).

For `N[C@@H](CCC(=O)N[C@@H](CS)C(=O)NCC(=O)O)C(=O)O.[Bi]` [bismuth glutathione, Bismuth Glutathione], the “improvement in mucositis scores (time with score of three or higher)” value (from here on “improvement in mucositis scores”) (hamster, in vivo) was “showed improvement in their mucositis scores”.
In the case of bismuth subgallate, the “improvement in mucositis scores” value [1] is reported as “did not show a statistically significant improvement”.
With Bismuth Ascorbate the “improvement in mucositis scores” value (solution containing 1.75 mg/ml, 0.5 ml into left cheek pouch three times per day, Day 0 to Day 19, single radiation dose 35-38 Gy) was “showed improvement in their mucositis scores”.
With `O=[N+]([O-])[O-].O=[N+]([O-])[O-].O=[N+]([O-])[O-].O=[N+]([O-])[O-].[Bi+3].[Bi+3].[Bi+3].[Bi+3].[Bi+3].[O-2].[OH-].[OH-].[OH-].[OH-].[OH-].[OH-].[OH-].[OH-].[OH-]` [bismuth subnitrate] the “improvement in mucositis scores” value [1] was “did not show a statistically significant improvement”.
For `O=C([O-])CC(O)(CC(=O)[O-])C(=O)[O-].[Bi+3]` [bismuth citrate], the “improvement in mucositis scores” value [2] was “showed improvement in their mucositis scores”.
In the case of `O=C([O-])[C@H]([O-])[C@@H]([O-])C(=O)[O-].[Bi+3].[K+]` [bismuth potassium tartrate], the “improvement in mucositis scores” value [1] is reported as “did not show a statistically significant improvement”.
`O=C([O-])c1ccccc1[O-].[Bi+3].[OH-]` [bismuth salicylate basic] was tested, and the “improvement in mucositis scores” value [2] was “showed improvement in their mucositis scores”.
With bismuth (III) oxide the “improvement in mucositis scores” value [1] was “did not show a statistically significant improvement”.
In the case of `O=C([O-])c1ccccc1.O=C([O-])c1ccccc1.O=C([O-])c1ccccc1.[Bi+3]` [bismuth benzoate, Bismuth Benzoate], the “improvement in mucositis scores” value [2] is reported as “showed improvement in their mucositis scores”.
`O=C([O-])[O-].[Bi+3].[Bi+3].[O-2].[O-2]` [bismuth subcarbonate] was tested, and the “improvement in mucositis scores” value [1] was “did not show a statistically significant improvement”.
